The target in data set [1] is T1, recombinant human glutathione reductase (GR) (Homo sapiens, UniProt P00390).
T1 sequence (P00390 44-522): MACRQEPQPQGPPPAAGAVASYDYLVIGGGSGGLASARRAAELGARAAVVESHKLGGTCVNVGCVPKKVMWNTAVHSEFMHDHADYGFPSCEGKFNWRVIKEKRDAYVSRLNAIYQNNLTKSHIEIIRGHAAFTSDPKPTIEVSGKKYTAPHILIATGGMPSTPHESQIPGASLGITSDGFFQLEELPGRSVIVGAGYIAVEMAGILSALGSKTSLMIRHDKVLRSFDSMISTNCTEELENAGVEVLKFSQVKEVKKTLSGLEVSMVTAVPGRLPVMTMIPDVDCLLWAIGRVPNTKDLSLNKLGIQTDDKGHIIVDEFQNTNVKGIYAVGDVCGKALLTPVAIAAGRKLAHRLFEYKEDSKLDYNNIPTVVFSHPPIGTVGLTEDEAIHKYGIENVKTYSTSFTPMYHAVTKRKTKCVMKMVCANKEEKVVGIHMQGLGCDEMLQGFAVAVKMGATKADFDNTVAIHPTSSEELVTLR
The data set can be described thus: GR enzyme inhibition (NADPH consumption at 340 nm). The settings on record: inhibitor 5-60 μM; 100 µM GSSG; read-out: IC50 against hGR. It is filed as biochemical. Here is the method: Trypanothione disulfide (TS2) and recombinant T. cruzi TR were prepared following published procedures. Recombinant human glutathione reductase (GR) was kindly provided by Dr. Heiner Schirmer, Heidelberg Germany. Stock solutions (5 mM) of the inhibitors were prepared in DMSO. The kinetic analyses were conducted using a Jasco V650 spectrophotometer. All enzymatic tests were performed in polystyrene optical cuvettes (10 × 4 × 45 mm). TR activity was measured at 25 °C in a total volume of 1 mL TR assay buffer (40 mM HEPES, 1 mM EDTA, pH 7.5 [47]) containing 100 μM NADPH and 5–10 mU enzyme in the absence and presence of the inhibitor. Each assay contained a total of 5% DMSO. The reaction was started by adding TS2 and NADPH consumption was followed at 340 nm.
GR activity was measured at 25 °C in a total volume of 1 mL GR assay buffer (20.5 mM KH2PO4, 26.5 mM K2HPO4, 200 mM KCl, 1 mM EDTA, pH 6.9). The assays contained 100 µM NADPH and 5–10 mU GR and varying concentrations of the inhibitor. The reaction was started by adding 100 µM GSSG and the absorption decrease was followed at 340 nm.
Five compound concentrations were used ranging from 100–5 μM. […] IC50 values were calculated using the four-parameter equation model 205 and the option “unlock” from the XLfit add-in (IDBS, Guildford, United Kingdom) for Excel (Microsoft Corporation, Redmond, WA, USA).

The nature of data set [2]: Cytotoxicity assay (Alamar Blue) on macrophages. It is filed as cell-based, murine. Conditions: mouse, J774A.1 macrophages, mean and SD of triplicate. As to the method:
The murine macrophage cell line J774.A1 was maintained in culture flasks with RPMI 1640 medium supplemented with 10% FBS, 1% MEM-NEAA medium (Gibco) and 100 U/mL antibiotic-antifungal mixture (Gibco). Cells were incubated at 37 °C with 5% CO2 and humidity. Trypsinized J774.A1 macrophages were washed and viability was assessed by the trypan blue dye (Sigma-Aldrich, Toluca, Edo de Mexico, Mexico) exclusion assay. In a 96-well microplate, 50,000 macrophages were seeded per well and a dose-response assay was performed. Compounds were evaluated using six-fold serial dilutions ranging from 100 µg/mL to 0.3 µg/mL of final concentration. Each compound was tested in triplicate. After 20 h incubation, Alamar Blue was added (10% v/v) and cells were incubated for an additional 4 h period. Results were obtained as previously described and CC50 was calculated. As a negative control of cytotoxicity, cells were incubated only in the presence of 0.1% DMSO [39, 40].

Take `CC(C)OC(=O)c1ccc2c(c1)[n+]([O-])c(C(=O)C(C)C)c(C(F)(F)F)[n+]2[O-]` [Compound T-085, Isopropyl 2-isobutyryl-3-trifluoromethylquinoxaline-7-carboxylate 1,4-di-N-oxide]: the IC50 – broadly, the concentration that inhibits the measured activity by half – in data set [1] was 50 µM. Also, the CC50 (in general, the concentration that lowers cell viability or growth by half) at 24 h in data set [2] is 10.4 ± 0.8 µM.

For the origin of these results see paper PMC6155662, “Trypanocidal Activity of Quinoxaline 1,4 Di-N-oxide Derivatives as Trypanothione Reductase Inhibitors” (Molecules : A Journal of Synthetic Chemistry and Natural …, 2017).
